Laboratory results reported in article PMC10382584, “Macrocyclization of linear molecules by deep learning to facilitate macrocyclic drug candidates discovery” (Nature Communications, 2023).

Assays:
Test in all cases: biochemical
Design in all cases: DiscoveRx KINOMEscan competition binding, percent of DMSO control signal at 100 nM
Details in all cases: read-out: Fig. 4a / Percent Control / Compound 1; percent of DMSO control, competition binding
LTK = LTK (Homo sapiens, UniProt P29376)
Description: (§1) The kinase selectivity profile was performed by using the DiscoveRx KINOMEscan platform. […] Test compounds were prepared as 40× stocks in 100% DMSO and directly diluted into the assay. The results were defined as a percentage of signal between the negative (DMSO, 100% control) and the positive (control compound, 0% control) control, which was calculated as follows: percent control = [(test compound signal − positive control signal)/(negative control signal − positive control signal)] × 100.

DYRK1B = DYRK1B (Homo sapiens, UniProt Q9Y463)
DYRK1B, sequence (Q9Y463 whole entry): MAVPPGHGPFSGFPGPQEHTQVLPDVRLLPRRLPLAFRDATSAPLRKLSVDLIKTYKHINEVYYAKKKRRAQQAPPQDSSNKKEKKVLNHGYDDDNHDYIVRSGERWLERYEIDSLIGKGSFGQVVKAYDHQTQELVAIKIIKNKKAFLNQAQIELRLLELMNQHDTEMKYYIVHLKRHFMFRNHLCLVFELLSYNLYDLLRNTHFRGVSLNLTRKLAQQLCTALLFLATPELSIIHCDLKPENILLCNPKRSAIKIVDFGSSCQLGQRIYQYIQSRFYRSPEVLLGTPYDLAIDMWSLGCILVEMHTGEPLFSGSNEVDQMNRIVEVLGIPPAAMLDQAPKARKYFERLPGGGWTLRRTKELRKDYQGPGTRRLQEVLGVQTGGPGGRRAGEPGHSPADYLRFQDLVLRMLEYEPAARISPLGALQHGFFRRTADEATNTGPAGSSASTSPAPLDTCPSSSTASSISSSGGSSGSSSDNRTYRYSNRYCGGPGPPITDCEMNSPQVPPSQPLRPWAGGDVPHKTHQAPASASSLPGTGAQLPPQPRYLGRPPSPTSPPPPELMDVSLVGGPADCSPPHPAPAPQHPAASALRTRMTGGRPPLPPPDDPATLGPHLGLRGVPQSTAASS
Description: as §1

ADCK4 = target: T1, ADCK4 (Homo sapiens, UniProt Q96D53)
T1 construct: gene COQ8B
T1 sequence (Q96D53 whole entry): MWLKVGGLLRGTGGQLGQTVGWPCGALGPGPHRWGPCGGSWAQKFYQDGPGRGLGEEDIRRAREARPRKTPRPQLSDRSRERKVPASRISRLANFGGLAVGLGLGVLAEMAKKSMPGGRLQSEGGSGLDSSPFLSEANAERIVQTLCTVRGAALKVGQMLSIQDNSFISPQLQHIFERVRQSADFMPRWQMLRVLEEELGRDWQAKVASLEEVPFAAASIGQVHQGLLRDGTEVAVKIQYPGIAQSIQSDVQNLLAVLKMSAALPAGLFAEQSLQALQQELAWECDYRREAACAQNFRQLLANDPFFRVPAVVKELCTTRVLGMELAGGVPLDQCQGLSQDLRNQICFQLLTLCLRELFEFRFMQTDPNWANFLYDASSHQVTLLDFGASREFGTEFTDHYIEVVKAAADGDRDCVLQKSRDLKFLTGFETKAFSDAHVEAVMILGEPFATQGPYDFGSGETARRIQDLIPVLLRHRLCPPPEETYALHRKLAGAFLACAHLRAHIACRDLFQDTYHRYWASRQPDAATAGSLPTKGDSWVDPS

PIM1 = PIM1 (Homo sapiens, UniProt P11309)
PIM1, sequence (P11309 whole entry): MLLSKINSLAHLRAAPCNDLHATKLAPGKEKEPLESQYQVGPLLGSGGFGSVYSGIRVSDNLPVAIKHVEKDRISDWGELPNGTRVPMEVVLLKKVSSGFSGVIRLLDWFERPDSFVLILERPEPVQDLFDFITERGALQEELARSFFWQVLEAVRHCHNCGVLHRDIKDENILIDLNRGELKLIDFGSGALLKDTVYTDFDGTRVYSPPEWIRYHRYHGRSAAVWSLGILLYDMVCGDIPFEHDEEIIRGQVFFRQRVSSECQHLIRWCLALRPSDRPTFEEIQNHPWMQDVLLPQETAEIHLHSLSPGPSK

LTK, sequence (P29376 whole entry): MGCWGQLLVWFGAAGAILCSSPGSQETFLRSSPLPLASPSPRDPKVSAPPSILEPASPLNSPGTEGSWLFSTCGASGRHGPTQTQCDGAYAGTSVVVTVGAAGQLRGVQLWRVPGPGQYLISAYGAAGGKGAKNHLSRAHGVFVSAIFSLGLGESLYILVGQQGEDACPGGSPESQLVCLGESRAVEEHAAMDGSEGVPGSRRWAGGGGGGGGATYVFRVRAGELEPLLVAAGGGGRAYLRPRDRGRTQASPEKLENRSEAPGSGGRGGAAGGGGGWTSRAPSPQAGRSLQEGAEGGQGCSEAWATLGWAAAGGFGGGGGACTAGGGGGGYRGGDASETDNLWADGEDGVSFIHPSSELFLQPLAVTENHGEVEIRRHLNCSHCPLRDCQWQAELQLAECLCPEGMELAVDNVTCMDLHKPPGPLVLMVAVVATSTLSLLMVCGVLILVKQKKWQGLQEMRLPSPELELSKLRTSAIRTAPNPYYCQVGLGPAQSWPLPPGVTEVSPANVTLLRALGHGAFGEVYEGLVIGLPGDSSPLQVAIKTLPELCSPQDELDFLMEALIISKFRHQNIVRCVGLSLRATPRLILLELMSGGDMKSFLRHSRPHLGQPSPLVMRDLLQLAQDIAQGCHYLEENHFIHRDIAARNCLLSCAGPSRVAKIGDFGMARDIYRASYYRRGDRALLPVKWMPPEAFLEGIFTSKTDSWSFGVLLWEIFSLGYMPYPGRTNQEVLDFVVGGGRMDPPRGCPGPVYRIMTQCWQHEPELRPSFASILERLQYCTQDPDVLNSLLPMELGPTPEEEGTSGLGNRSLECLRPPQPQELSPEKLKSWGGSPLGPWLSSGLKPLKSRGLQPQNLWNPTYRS

## Cc1cnc2nc1Nc1cccc(c1)COCc1cc(ccc1OCCN1CCCC1)N2 [Compound 1]
LTK
  remaining binding at 0.1 µM: 100%
DYRK1B
  remaining binding at 0.1 µM: 100%
ADCK4
  remaining binding at 0.1 µM: 61%
PIM1
  remaining binding at 0.1 µM: 100%
